According to US8822754B2, “Ecdysone receptor-based inducible gene expression system” (Intrexon Corporation, priority 2000, dated 2014):

How the values were obtained:
GAL4CfEcRVP16 [1] = assay: Transactivation of reporter genes through switch 1.6 in CHO cells; assay type: cell-based, Choristoneura fumiferana; conditions: switch 1.6 GAL4CfEcRVP16, pGAL4RELuc
Method: (§1) This construct was prepared so that both the GAL4 DNABD and the VP16AD were placed on the same molecule. GAL4DNABD (SEQ ID NO: 41) and VP16AD (SEQ ID NO: 45) were fused to CfEcRDEF (SEQ ID NO: 3) at N- and C-termini respectively.
(§2) The cells were harvested and reporter activity was assayed.
(§3) Cells were harvested 24-48 hr after adding ligands. […] Twenty μl of lysate was assayed.

DmVgRXR + MmRXR = molecular target: T1, DmVgRXR + MmRXR (Drosophila melanogaster, UniProt P34021, E282G/G283S/G286V); assay: Transactivation of reporter genes through switch 1.8 in CHO cells; assay type: cell-based; conditions: switch 1.8 DmVgRXR + MmRXR, pIND(SP1)LacZ
T1 construct: host or cells: CHO, NIH3T3, 293 or CV1 cells (one cell line per assay)
Text: This system was purchased from Invitrogen Corp., Carlsbad, Calif. It comprises a Drosophila melanogaster EcR (“DmEcR”) with a modified DNABD fused to VP16AD and placed under the control of a CMV promoter (SEQ ID NO: 60). Full length MmRXR (SEQ ID NO: 53) was placed under the control of the RSV promoter (SEQ ID NO: 61). The reporter, pIND(SP1)LacZ, contains five copies of a modified ecdysone response element (“EcRE”, E/GRE), three copies of an SP1 enhancer, and a minimal heat shock promoter, all of which were placed upstream to the LacZ reporter gene.
as §2, §3

CfVgRXR + MmRXR = assay: Transactivation of reporter genes through switch 1.9 in CHO cells; assay type: cell-based, Choristoneura fumiferana; conditions: switch 1.9 CfVgRXR + MmRXR, pIND(SP1)LacZ
Method: This example was prepared in the same way as switch 1.8 except DinEcR was replaced with a truncated CfEcR comprising a partial A/B domain and the complete CDEF domains [SEQ ID NO: 62 (polynucleotide) and SEQ ID NO: 63 (polypeptide)].
as §2, §3

GAL4CfEcRVP16 [2] = assay: Transactivation of reporter genes through switch 1.6 in 3T3 cells; assay type: cell-based, Choristoneura fumiferana; conditions: switch 1.6 GAL4CfEcRVP16, pGAL4RELuc
Method: as §1
The cells were plated when they reached 50% confluency.
as §3

GAL4CfEcRVP16 [3] = assay: Transactivation of reporter genes through switch 1.6 in 293 cells; assay type: cell-based, Choristoneura fumiferana; conditions: switch 1.6 GAL4CfEcRVP16, pGAL4RELuc
Method: as §1
(§4) The same procedures described for CHO were followed for 293 cells except that the cells were plated in biocoated plates to avoid clumping.
as §3

VP16CfEcR = assay: Transactivation of reporter genes through switch 1.7 in 293 cells; assay type: cell-based, Choristoneura fumiferana; conditions: switch 1.7 VP16CfEcR, pEcRELuc
Method: Six ecdysone response elements (“EcRE”; SEQ ID NO: 59) from the hsp27 gene were placed upstream of the promoter and a luciferase gene (SEQ ID NO: 57). This switch most probably uses endogenous RXR.
as §4, §3

GAL4USP + VP16CfEcR = assay: Transactivation of reporter genes through switch 1.5 in CV1 cells; assay type: cell-based, Choristoneura fumiferana; conditions: switch 1.5 GAL4USP + VP16CfEcR, pGAL4RELuc
Method: This construct was prepared in the same way as switch 1.3 except MmRXRDEF was replaced with CfUSPDEF (SEQ ID NO: 58).
(§5) The same procedures described for NIH3T3 cells were followed for CV1 cells
as §3

CfVgRXR = assay: Transactivation of reporter genes through switch 1.10 in CV1 cells; assay type: cell-based, Choristoneura fumiferana; conditions: switch 1.10 CfVgRXR, pIND(SP1)LacZ
Method: This example was prepared in the same way as switch 1.9 except MmRXR (SEQ ID NO: 53) was deleted.
as §5, §3

CfEcR/RXR-based switch = assay: Luciferase reporter assay of truncated CfEcR and MmRXR receptor pairs in NIH3T3 cells (Example 2); assay type: cell-based, Choristoneura fumiferana; conditions: NIH3T3 cells, 0, 1, 5 or 25 uM ligand, 48 hr; FIGS. 11-14
Method: Briefly, polynucleotides encoding EcR or RXR receptors were truncated at the junctions of A/B, C, D, E and F domains and fused to either a GAL4 DNA binding domain encoding polynucleotide (SEQ ID NO: 41) for CfEcR, or a VP16 activation domain encoding polynucleotide (SEQ ID NO: 45) for MmRXR as described in Example 1. The resulting receptor truncation/fusion polypeptides were assayed in NIH3T3 cells. Plasmid pFRLUC (Stratagene) encoding a luciferase polypeptide was used as a reporter gene construct and pTKRL (Promega) encoding a Renilla luciferase polypeptide under the control of the constitutive TK promoter was used to normalize the transfections as described above. The analysis was performed in triplicates and mean luciferase counts were determined as described above.
Gene expression cassettes comprising polynucleotides encoding either full length or truncated CfEcR polypeptides fused to a GALA. […] The cells were harvested, lysed and luciferase reporter activity was measured in the cell lysates. […]

T1 sequence (P34021 whole entry E282G/G283S/G286V): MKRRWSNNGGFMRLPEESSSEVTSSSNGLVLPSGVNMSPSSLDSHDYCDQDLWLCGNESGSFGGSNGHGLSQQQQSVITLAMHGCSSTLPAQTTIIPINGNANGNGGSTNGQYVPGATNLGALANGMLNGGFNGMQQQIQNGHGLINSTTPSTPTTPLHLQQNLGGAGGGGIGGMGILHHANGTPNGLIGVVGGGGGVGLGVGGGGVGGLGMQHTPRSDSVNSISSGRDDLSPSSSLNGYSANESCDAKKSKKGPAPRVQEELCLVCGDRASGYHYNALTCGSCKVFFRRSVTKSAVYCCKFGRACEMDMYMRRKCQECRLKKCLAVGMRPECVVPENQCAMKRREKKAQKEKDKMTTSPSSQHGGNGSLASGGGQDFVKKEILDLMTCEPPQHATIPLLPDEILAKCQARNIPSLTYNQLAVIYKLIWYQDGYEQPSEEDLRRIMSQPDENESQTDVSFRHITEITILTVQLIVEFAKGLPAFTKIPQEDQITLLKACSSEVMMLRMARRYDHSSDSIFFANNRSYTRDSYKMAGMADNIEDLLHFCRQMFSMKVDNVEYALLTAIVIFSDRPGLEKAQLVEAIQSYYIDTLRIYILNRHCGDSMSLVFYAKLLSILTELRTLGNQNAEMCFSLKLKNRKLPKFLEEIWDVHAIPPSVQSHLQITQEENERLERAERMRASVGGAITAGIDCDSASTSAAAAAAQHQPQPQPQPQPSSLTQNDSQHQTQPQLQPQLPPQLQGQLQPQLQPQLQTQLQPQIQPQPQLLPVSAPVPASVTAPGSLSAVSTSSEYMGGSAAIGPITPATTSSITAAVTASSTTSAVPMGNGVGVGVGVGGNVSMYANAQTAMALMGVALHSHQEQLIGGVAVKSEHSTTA
T1 sequence (P28700 whole entry, further chain): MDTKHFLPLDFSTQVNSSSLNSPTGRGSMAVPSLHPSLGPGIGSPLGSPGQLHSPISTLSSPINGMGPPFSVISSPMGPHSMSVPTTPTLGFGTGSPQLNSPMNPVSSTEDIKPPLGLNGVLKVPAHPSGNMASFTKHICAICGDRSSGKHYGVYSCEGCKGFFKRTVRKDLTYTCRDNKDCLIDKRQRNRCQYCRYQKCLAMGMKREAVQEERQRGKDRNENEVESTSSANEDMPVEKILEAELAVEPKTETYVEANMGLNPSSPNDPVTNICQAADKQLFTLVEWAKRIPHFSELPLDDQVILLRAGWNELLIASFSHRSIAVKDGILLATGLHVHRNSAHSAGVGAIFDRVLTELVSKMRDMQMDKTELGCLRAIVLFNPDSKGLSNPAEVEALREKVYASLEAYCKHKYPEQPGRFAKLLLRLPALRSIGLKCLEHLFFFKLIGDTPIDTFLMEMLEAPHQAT

## CCc1c(OC)cccc1C(=O)NN(C(=O)c1cc(C)cc(C)c1)C(C)(C)C [N-(2-ethyl-3-methoxybenzoyl)-N′-(3,5-dimethylbenzoyl)-N′-tert-butylhydrazine]
GAL4CfEcRVP16 [1]
  Mean Fold Activation with 50 μM N-(2-ethyl-3-methoxybenzoyl)-N′-(3,5-dimethylbenzoyl)-N′-t-butylhydrazine: 9 fold
DmVgRXR + MmRXR
  Mean Fold Activation with 50 μM N-(2-ethyl-3-methoxybenzoyl)-N′-(3,5-dimethylbenzoyl)-N′-t-butylhydrazine: 14 fold
CfVgRXR + MmRXR
  Mean Fold Activation with 50 μM N-(2-ethyl-3-methoxybenzoyl)-N′-(3,5-dimethylbenzoyl)-N′-t-butylhydrazine: 27 fold
GAL4CfEcRVP16 [2]
  Mean Fold Activation Through N-(2-ethyl-3-methoxybenzoyl)-N′-(3,5-dimethylbenzoyl)-N′-t-butylhydrazine: 7 fold
GAL4CfEcRVP16 [3]
  Mean Fold Activation Through N-(2-ethyl-3-methoxybenzoyl)-N′-(3,5-dimethylbenzoyl)-N′-t-butylhydrazine: 3 fold
VP16CfEcR
  Mean Fold Activation Through N-(2-ethyl-3-methoxybenzoyl)-N′-(3,5-dimethylbenzoyl)-N′-t-butylhydrazine: 2 fold
GAL4USP + VP16CfEcR
  Mean Fold Activation Through N-(2-ethyl-3-methoxybenzoyl)-N′-(3,5-dimethylbenzoyl)-N′-t-butylhydrazine: 3 fold
CfVgRXR
  Mean Fold Activation Through N-(2-ethyl-3-methoxybenzoyl)-N′-(3,5-dimethylbenzoyl)-N′-t-butylhydrazine: 1 fold
CfEcR/RXR-based switch
  sensitivity of the EcR/RXR switch to the ligand: much more sensitive
